Measured values published in article PMC12441861, “Next-Generation Lipid Prodrugs Orally Deliver Tenofovir via Enhanced Chylomicron Incorporation” (ACS Pharmacology & Translational Science, 2025).
Like-named read-outs stand apart in the source and are kept apart here.

Experiments:
[1] = Mouse oral PK and tissue distribution, fed state; assay type: in vivo; settings: for Tmax / AUC(0-t) / Cmax: male, C57BL/6, mouse; for AUC(0-t): read-out: Plasma AUC0-18h; for improvement in lung AUC over TXL / improvement in lung AUC over non-BOG counterpart (21a vs 15a, 21b vs 15b) / increase in plasma AUC relative to TXL / increase in plasma AUC relative to non-BOG counterpart (21a vs 15a, 21b vs 15b) / increase in plasma Cmax relative to TXL / increase in plasma Cmax relative to non-BOG counterpart (21a vs 15a, 21b vs 15b): 10 mg/kg oral
Excerpt: Given the increased packaging of the CF3-modified lipids into CMs compared to their ω-unmodified congeners, we selected these compounds for PK studies in mice. We hypothesized that, following oral administration, our modified prodrugs would favor CM-mediated transport into the lymphatics over absorption into mesenteric veins feeding into the portal system. By circumventing direct transport to the liver, these prodrugs are expected to achieve elevated levels in the lung relative to the liver, as lymph empties into the jugular venous angle and mixes with blood en route to the pulmonary arteries (Figure ). For all mouse PK experiments, prodrugs were formulated in a 9:1 mixture of olive oil and ethanol, then administered to male C57BL/6 mice via oral gavage at a dose of 10 mg/kg. Organs (liver, lung, and plasma) were harvested at 1, 2, 4, 8, and 18 h postdose, per the protocol described by our groups previously. Concentrations of prodrug were quantified using LC-MS/MS after tissue homogenization, extraction, and sample preparation.
The compounds TXL, 15a, 15b, 21a, 21b, and a vehicle control were prepared at a concentration of 1 mg/mL in a 90:10 solution of olive oil (Sigma-Aldrich, cat. No. O1514) and 190-proof ethanol. The dosing for each mouse was calculated based on individual body weights to achieve a final dose of 10 mg/kg. For example, a 20 g mouse would receive 200 μL of the 1 mg/mL drug formulation, while a 25 g mouse would receive 250 μL.
In accordance with the American Chemical Society Guidelines to Publication of Chemical Research, we affirm the use of standard ethical practices when housing and handling research animals, as ensured by the Emory University’s Institutional Animal Care and Use Committee (IACUC) and the Division of Animal Resources (DAR) through a rigorous protocol review, amendment, and approval process. A total of 220 C57BL6/J male mice (aged 11–12 weeks, weight, 22–30 g) were used for these studies. Each mouse was weighed, recorded, and ear-clipped for identification. The dosing for each mouse was calculated based on individual body weights to achieve a final dose of 10 mg/kg. Animals were anesthetized using isoflurane gas before receiving a single dose of drug prepared as described above using a 22-gauge gavage needle attached to a calibrated syringe.
Time points for tissue collection were 1, 2, 4, 8, and 18 h for unfasted mice, and 1, 2, 4, 8, and 24 h for fasted mice. At each time point, the mice (n = 4 per compound per time point) were anesthetized using isoflurane and subjected to cardiac puncture for blood collection into EDTA-coated tubes. The collected blood samples were immediately placed on ice before the mice were humanely euthanized via cervical dislocation. Brain, liver, lungs, and kidneys were harvested, rinsed in PBS, and placed in prelabeled tubes. Tissues were flash-frozen in liquid nitrogen then transferred to dry ice for storage.
Blood samples were collected into EDTA-coated tubes and centrifuged at 400 RCF for 10 min at 4 °C to separate plasma from the cellular components. The plasma layer was carefully pipetted off and stored in separate prelabeled and preweighed tubes. All tissues were stored at −80 °C until time for processing.
Tissues were weighed (∼50 mg) into homogenization tubes and ACN containing a 10 μM ITSD was added to achieve a final solvent-to-tissue ratio of 4:1. Homogenization beads were added, and the tissues were processed (Biotage Lysera, part no. 19–060) using two 20 s pulses with a 10 s interval period. Homogenate was centrifuged at maximum speed for 1 h, supernatant collected and analyzed via LC-MS using the method described previously. For plasma samples, a 50 μL aliquot was added 200 μL of ACN containing ITSD. The mixture was vortexed thoroughly and then centrifuged to precipitate proteins, with the supernatant collected and analyzed via LC-MS. […]

[2] = Metabolic stability in human liver microsomes; assay type: in vitro ADME; settings: pH 7.4, read-out: Metabolic Stability HLM t1/2
Procedure: Assays employed human liver microsomes (HLMs, 20 mg/mL) from Xenotech. A 10 mM NADPH stock was prepared in deionized H2O, and test compounds were dissolved in 100% MeOH to a final concentration of 10 mM. The stock solutions were diluted to 500 μM in 100 mM potassium phosphate buffer (pH 7.4), keeping the final MeOH concentration below 0.2%. Reaction mixtures were prepared by combining 928 μL phosphate buffer, 55 μL liver microsomes, and the test compound solution to a final concentration of 3 μM. Verapamil was used as a positive control. The reactions were initiated with the addition of 110 μL of 10 mM NADPH. Aliquots were taken in duplicate at 0, 5, 10, 15, and 30 min, quenched with 100 μL of cold MeOH containing 2 μM internal standard (d 5-7-ethoxy coumarin), and centrifuged at 12,000 RCF for 5 min. The supernatants were then transferred to LC-MS vials for analysis. The average of each duplicate was normalized to the 0 min time point, representing 100% remaining (0% metabolism).

Cytotoxicity, MTT assay = settings: human
Procedure: (§1) To measure cytotoxicity, HeLa-derived TZM-bl cells , were treated with serial dilutions of each drug, and viability was assessed after 48 h. Two methods were used: an ATP luminescence assay, which measures cellular ATP levels as an indicator of metabolic activity (compounds 8a–d), and an MTT assay, which evaluates cell viability via mitochondrial enzymatic activity (compounds 15b, 21a, and 21b).
(§2) The TZM-bl cell line (BEI Resources, ARP-8129) was used to evaluate both cell viability and HIV pseudovirus infectivity reduction. Cytotoxicity in this cell line was measured via two methods. The first method, an ATP luminescence assay, was used for compounds 15a, 15b, 21a, and 21b as such: 6000 TZM-bl cells per well were seeded in a 96-well plate and incubated at 37 °C with 5% CO2 for 24 h. Compounds were prepared as serial dilutions (final concentrations of 1, 0.2, 0.04, 0.008, and 0.0016 μM) in complete DMEM with DEAE-Dextran at 40 μg/mL to mimic HIV infectivity conditions. Solutions were added to the cells and incubated for another 48 h. Viability was assessed using the Promega Cell Titer Glow (CTG) Assay (cat No. G9242) by adding a 50% PBS-CTG solution to each well and measuring luminescence, which correlates with ATP levels, on an Agilent BioTek Synergy HT reader. Cytotoxicity of compounds 8a–d was determined using a colorimetric assay based the conversion of MTT (3-(4,5-dimethylthiazol-2-yl)-2,5-diphenyltetrazolium bromide) to formazan as described previously. TZM-bl cells were plated into 96-well tissue culture plates 1 day prior to performing the MTT assay. A series of 10 3-fold dilutions of each compound was performed from a starting concentration of 10 mM and each dilution was tested for a reduction in cell viability according to the manufacturer’s instructions (CyQuant MTT Cell Viability Assay, ThermoFisher, V13154). Wells containing TZM-bl cells with media only were used as a control. Briefly, serial dilutions of each test compound were added to the plated TZM-bl cells. At 48 h, the media was removed and replaced with 100 mL of fresh culture medium. 10 mL of 12 mM MTT solution was added to each well and incubated at 37 °C for 4 h. 85 mL of supernatant was then removed from each well and replaced with 50 mL of DMSO. Following a 10 min incubation at 37 °C, the absorbance of each well was determined at 540 nm using a Biotek Synergy Neo2 multimode reader and Gen5 v3.02 software.

[3] = Cytotoxicity, ATP luminescence (Cell Titer Glow) assay; settings: human
Procedure: as §1, §2

Caco-2 cells = test: Control: release of membrane-associated prodrug into media after wash; assay type: in vitro ADME, human; settings: 10 μM, 15 min at 37 °C, media at 0, 5 and 15 min postwash
Procedure: After characterizing the impact of membrane dynamics on the packaging of ω-unfunctionalized prodrugs into CMs, we proceeded to screen the ω-CF3-functionalized BOG lipid prodrugs in our CM assay. All collections were done at the 20 h time point to allow full diffusion of prodrug out of the membrane. […] However, CM concentration strongly correlated with c Log D values (R ^2 = 0.89, Figure c), consistent with trends observed for ω-unfunctionalized prodrugs and highlighting the role of lipophilicity on CM incorporation. […] This is further supported by the 2.4-fold increase in CM concentration observed for 15a compared to TXL, where the only difference is the inclusion of the terminal CF3 group. […] Therefore, as an important control experiment, Caco-2 cells were incubated with 10 μM of TXL or compound 21a (n = 6 per group) in the presence of the lipid mixture for 15 min at 37 °C. After incubation, the cells were washed three times with PBS, and fresh drug-free growth media was added. Aliquots of the media were collected at 0, 5, and 15 min postwash. Samples were analyzed by LC-MS/MS for the presence of TXL and 21a.

[4] = in vivo, po, 10 mg/kg, single oral dose 10 mg/kg, fed mice, read-out: Liver Tmax
[5] = in vivo, po, 10 mg/kg, single oral dose 10 mg/kg, fed mice, read-out: Lung Tmax
[6] = in vivo, po, 10 mg/kg, single oral dose 10 mg/kg, fed mice, read-out: Plasma Tmax
[7] = in vivo, single oral dose 10 mg/kg, fed mice
[8] = in vivo, single oral dose 10 mg/kg, fed mice, read-out: Plasma Cmax
[9] = single oral dose 10 mg/kg, fed mice
[10] = liver, single oral dose 10 mg/kg, fed mice, read-out: Liver Tmax
[11] = plasma, single oral dose 10 mg/kg, fed mice
[12] = plasma, single oral dose 10 mg/kg, fed mice, read-out: Plasma Tmax

Row | SMILES | Tmax [1, 4] | Tmax [1, 5] | Tmax [1, 6] | AUC(0-t) [1, 7] | Cmax [1, 8] | Liver AUC0-18h [1, 9] | Liver Cmax [1, 9] | Lung Cmax [1, 9] | half-life at 3 µM [2] | CC50 at 48 h (Cytotoxicity, MTT assay) | CC50 at 48 h [3] | prodrug concentration in media postwash (Caco-2 cells) | improvement in lung AUC over TXL ([1]; fed mice) | improvement in lung AUC over non-BOG counterpart (21a vs 15a, 21b vs 15b) ([1]; fed mice) | increase in plasma AUC relative to TXL ([1]; fed mice) | increase in plasma AUC relative to non-BOG counterpart (21a vs 15a, 21b vs 15b) ([1]; fed mice) | increase in plasma Cmax relative to TXL ([1]; fed mice) | increase in plasma Cmax relative to non-BOG counterpart (21a vs 15a, 21b vs 15b) ([1]; fed mice) | Tmax [1, 10] | Cmax [1, 11] | further results
1 | C[C@H](Cn1cnc2c(N)ncnc21)OCP(=O)(O)OCCCOCCCCCCCCCCCCCCCC(F)(F)F [15a, Ammonium[(1R)-2-(6-aminopurin-9-yl)-1-methyl-ethoxy]methyl-[3-(16,16,16-trifluorohexadecoxy)propoxy]phosphinate] | 2 h | 8 h | 2 h | 706 ng·h/mL | 127 ng/mL | 190,000 h*ng/g | 27,000 ng/g | 729 ng/g | > 2 h | > 10 µM | > 1 µM |  |  |  |  |  |  |  |  |  | 
2 | C[C@H](Cn1cnc2c(N)ncnc21)OCP(=O)(O)OC[C@H](COCCCCCCCCCCCCCCCC(F)(F)F)OCc1ccccc1 [21a, Ammonium[(1R)-2-(6-Aminopurin-9-yl)-1-methyl-ethoxy]methyl-[(2S)-2-benzyloxy-3-(16,16,16-trifluorohexadecoxy)propoxy]phosphinate] |  |  |  |  |  | 564,000 h*ng/g | 37,600 ng/g | 7,330 ng/g | > 2 h |  |  | below the limit of detection | 10 fold | 9 fold | 16 fold | 7 fold | 32 fold | 7 fold | 4 h | 915 ng/mL | Tmax ([1]; lung, po, 10 mg/kg, tissue not stated, read-out: Tmax (fed)): 8 h; AUC(0-t) [1, 11]: 4710 ng·h/mL; Tmax [1, 12]: 1 h; Lung AUC0-18h [1, 9]: 72,300 h*ng/g; CC50 at 48 h ([3]; TZM-bl cells): > 1 µM
3 | C[C@H](Cn1cnc2c(N)ncnc21)OCP(=O)(O)OC[C@H](COCCCCCCCCCCCCCCCCCC(F)(F)F)OCc1ccccc1 [21b, Ammonium[(1R)-2-(6-aminopurin-9-yl)-1-methyl-ethoxy]methyl-[(2S)-2-benzyloxy-3-(18,18,18-trifluorooctadecoxy)propoxy]phosphinate] |  |  |  |  |  | 218,000 h*ng/g | 22,000 ng/g | 3,000 ng/g | > 2 h |  |  |  | 4 fold | 4 fold | 15 fold | 5 fold | 28 fold | 8 fold | 4 h | 802 ng/mL | Tmax ([1]; lung, single oral dose 10 mg/kg, fed mice, read-out: Lung Tmax): 8 h; AUC(0-t) [1, 11]: 4530 ng·h/mL; Tmax [1, 12]: 2 h; Lung AUC0-18h [1, 9]: 31,100 h*ng/g; CC50 at 48 h ([3]; TZM-bl cells): > 1 µM
4 | CCCCCCCCCCCCCCCCOCCCOP(=O)(O)CO[C@H](C)Cn1cnc2c(N)ncnc21 [TXL, hexadecyloxypropyl (HDP)-TFV, reference compound] | 2 h | 8 h | 8 h | 298 ng·h/mL | 29.1 ng/mL | 25,600 h*ng/g | 2,660 ng/g | 583 ng/g |  | > 10 µM | > 1 µM | below the limit of detection |  |  |  |  |  |  |  |  | Tmax ([1]; in vivo, po, 10 mg/kg, tissue not stated, read-out: Tmax (fed)): 8 h
